Source: paper PMC8433497, “DNA-encoded chemistry technology yields expedient access to SARS-CoV-2 M^pro inhibitors” (Proceedings of the National Academy of Sciences of the …, 2021)
“Also recorded” adds a separate entry of the source. Like-named read-outs stand apart in the source and are kept apart here.

Tests used:
SARS-CoV-2 M^pro-His6 = SARS-CoV-2 M^pro-His6 (Severe acute respiratory syndrome coronavirus 2, UniProt P0DTD1); test: M^pro-His6 enzyme inhibition assay, fluorescent peptide reporter; type: biochemical; details: for M^pro inhibitory activity (in words): analogs compared with CDD-1713
SARS-CoV-2 M^pro = SARS-CoV-2 M^pro (Severe acute respiratory syndrome coronavirus 2, UniProt P0DTD1); test: M^pro (His tag removed) enzyme inhibition assay, fluorescent peptide reporter; type: biochemical; details: Table S1, 25 nM enzyme, 15 µM fluorescent peptide, Morrison equation, SE from triplicates
[1] = Metabolic stability in human liver microsomes; type: in vitro ADME; details: for half-life at 2 μM: 0.5 mg protein/ml, 2.0 uM compound, 1.0 mM NADPH, read-out: HLM t1/2
Experimental: (§1) The samples were collected at specific time points, 0, 30, and 60 min, in duplicate. The reactions were terminated by adding an equivalent volume of ice-cold methanol and vortexed. […] Three microliters […] of the supernatant was analyzed by UHPLC-Q Exactive Orbitrap MS (Thermo Fisher Scientific) equipped with 50-mm × 4.6-mm column (XDB C-18; Agilent Technologies). The column temperature was maintained at 40 °C. The flow rate was at 0.3 mL/min with a 30% mobile phase (acetonitrile containing 0.1% formic acid). Q Exactive MS was operated in positive mode with electrospray ionization. Ultrapure nitrogen was applied as the sheath (45 arbitrary units), auxiliary (10 arbitrary units), sweep (1.0 arbitrary unit), and the collision gas. […] Mass Spectrometry (MS) data were acquired from 80 to 1,200 Da in profile mode.

HepG2 cells [2] = test: HepG2 cell uptake assay; type: in vitro ADME; details: 10 μM, 2 h, 37 °C
Experimental: (§2) The HepG2 cells maintained in DMEM (containing 1 g/L glucose, 10% fetal bovine serum [FBS], and 1% penicillin/streptomycin) were seeded in a 12-well plate (a final density of 5 × 10^5 per well) for cell uptake assay and 96-well plate for cytotoxicity assay (a final density of 5 × 10^4 per well). The plate was incubated at 37 °C for 24 h.
The cells in 12-well plate were treated with CDD-1713 or CDD-1976 (final concentration: 10 μM). The plate was incubated at 37 °C for another 2 h. The medium in the plate was decanted and the cells were rinsed with 1 mL of 1× DPBS three times, then 0.5 mL of 0.25% trypsin was added to each well and incubated for 3.5 min (at 37 °C). One milliliter of complete medium was added to each well to quench the reaction. After spinning at 350 × g for 5 min, the cell pellet was reconstituted in MeOH/H2O (vol/vol 1/1) and CDD-1713 or CDD-1976 was extracted from 100 μL of the resulting mixture with 100 μL of ice-cold methanol. The mixtures were centrifuged at rcf 15,000 for 15 min. Three microliters of the supernatant was analyzed by UHPLC-Q Exactive Orbitrap MS (Thermo Fisher Scientific) equipped with a 50-mm × 4.6-mm column (XDB C-18; Agilent Technologies). The column temperature was set at 40 °C. Ultrapure nitrogen was applied as the sheath (45 arbitrary units), auxiliary (10 arbitrary units), sweep (1.0 arbitrary unit), and the collision gas. […]

[3] = tested on: SARS-CoV-2 (USA_WA1/2020 isolate); test: RTCA assay for in vitro inhibition of SARS-CoV-2 replication in VERO E6 cells; type: cell-based; details: live SARS-CoV-2, 75 h; for IC50, SARS-CoV-2 induced cell death (normalized cell index, RTCA): duplicates
[4] = Metabolic stability in mouse liver microsomes; type: in vitro ADME; details: for half-life at 2 μM: 0.5 mg protein/ml, 2.0 uM compound, 1.0 mM NADPH, read-out: MLM t1/2
Experimental: as §1

[5] = tested on: SARS-CoV-2 main protease (M^pro); test: Protein thermal shift stability assay (thermofluor); type: binding; details: 1.5 μM protease, various compound concentrations, SYPRO Orange
Experimental: The dye SYPRO Orange (Thermo Fisher Scientific) was used to perform the protein thermal shift assay. The assay was set up on a 384-well Roche plate where the SARS-CoV-2 main protease at a concentration of 1.5 μM was incubated with the test compound at various concentrations and SYPRO Orange dye at 5× in a 10 μL reaction. The melting curve experiment and data analysis were run on a Roche Lightcycler 480 real-time PCR instrument.

[6] = Plasma stability assay, mouse plasma; type: in vitro ADME; details: 10 µM, 37 °C, after 2-h incubation
Experimental: (§3) Compound CDD-1713 and CDD-1976 were incubated in human and mouse plasma, respectively, at a concentration of 10 µM in duplicate (n = 2) at 37 °C. At time points of 0, 30, 60, and 120 min, 15 µL of sample were taken out and the reactions terminated by adding 75 µL of ice-cold methanol. The reaction mixtures were then vortexed for 30 s and centrifuged at rcf 15,000 for 15 min. Following centrifugation, 3 μL of the supernatant was analyzed using UHPLC-Q Exactive Orbitrap MS. The percentage of test compound remaining at the individual time points relative to the 0-min sample was then determined.

[7] = Plasma stability assay, human plasma; type: in vitro ADME; details: 10 µM, 37 °C, after 2-h incubation
Experimental: as §3

HepG2 cells [8] = test: HepG2 cytotoxicity assay (XTT); type: cell-based; details: 24 h; for cytotoxicity in HepG2 cells (in words): 100 μM
Experimental: as §2
(§4) The cells in 96-well plate were treated by CDD-1713 or CDD-1976 at the final concentrations of 0, 10, 20, 50, or 100 μM (n = 3 replicates per concentration level per drug). After 24-h incubation at 37 °C, the medium in the plate was decanted and 100 μL of Dulbecco’s modified Eagle’s medium (DMEM) (without phenol red) was added into each well. The cell variability was measured using XTT method. The absorbance at 475 nm was read with a Tecan M1000 pro machine, with a reference wavelength of 660 nm. The reading was normalized by vehicle with final 0.5% dimethyl sulfoxide (DMSO) for each drug.

[9] = HepG2 cytotoxicity assay (XTT); type: cell-based; details: human, 100 µM group, XTT, normalized to DMSO, read-out: HepG2 cell viability
Experimental: as §2, §4

renin = target: T1, renin (Homo sapiens, UniProt P00797); test: Renin assay; type: biochemical; details: best off-target inhibition observed; read-out: estimated Kiapp, renin
T1 construct: purchased BPS Bioscience 80211
T1 sequence (P00797 67-406): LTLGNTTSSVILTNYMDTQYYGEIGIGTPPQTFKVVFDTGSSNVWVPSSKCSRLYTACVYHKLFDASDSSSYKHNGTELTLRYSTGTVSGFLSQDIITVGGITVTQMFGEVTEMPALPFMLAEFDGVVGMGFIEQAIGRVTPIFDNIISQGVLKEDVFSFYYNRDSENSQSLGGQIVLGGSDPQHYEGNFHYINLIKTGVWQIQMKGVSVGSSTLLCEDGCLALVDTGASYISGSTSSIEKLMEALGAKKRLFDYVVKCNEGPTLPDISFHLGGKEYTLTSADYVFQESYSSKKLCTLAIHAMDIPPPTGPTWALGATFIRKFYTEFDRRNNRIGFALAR
Experimental: Renin assay: A kit from BPS Bioscience (80211) was used with adjustments to the manufacturer’s protocol as follows. The reaction was run at RT in black 96 half-area plates in a total reaction volume of 50 μL containing 0.01% Tween-20. Instead of measuring endpoints at 30 min the increase in fluorescence (Ex 490 nm, Em 520 nm) per second (RFU/s) was obtained from linear progress curves over 10 min. Fractional activities were calculated from reactions with no inhibitors. Aliskiren was used as a positive control.

[10] = Table S1, 25 nM enzyme, 15 µM fluorescent peptide, Morrison equation, SE from triplicates
[11] = read-out: Ki against M^pro (Fig. 2; Fig. 2B M^pro-His-tag), 25 nM enzyme, 15 µM fluorescent peptide, Morrison equation, inactive = less than 90% inhibition at 25 µM
[12] = read-out: Mpro-His Ki, Table S1, 25 nM enzyme, 15 µM fluorescent peptide, Morrison equation, SE from triplicates

COc1cc(-c2cccc3[nH]ncc23)ccc1OCC(=O)N(C)C [CDD-1793]
Mpro-His Ki (SARS-CoV-2 M^pro-His6; [10]): Inactive | M^pro inhibitory activity (in words) (SARS-CoV-2 M^pro-His6): completely abolished the activity | Mpro Ki (SARS-CoV-2 M^pro): Inactive

CN(C)C(=O)COc1ccc(-c2cccc3[nH]ncc23)cc1C=O [CDD-1976]
Ki (SARS-CoV-2 M^pro-His6): 0.037 µM | M^pro inhibitory activity (in words) (SARS-CoV-2 M^pro-His6): better inhibition compared to CDD-1713 | Ki (SARS-CoV-2 M^pro-His6; [11]): 0.037 ± 0.004 µM | Ki (SARS-CoV-2 M^pro-His6; [12]): 0.037 ± 0.004 µM | metabolic stability in human liver microsomes (in words) [1]: more stable | half-life at 2 μM [1]: 41.4 min | cell permeability in uptake assay of HepG2 cells (HepG2 cells [2]): moderate cell permeability | effect on SARS-CoV-2 induced cell death (in words) [3]: reduced cell death in a dose-dependent manner | metabolic stability in mouse liver microsomes (in words) [4]: more stable in human liver microsomes, but not mouse | half-life at 2 μM [4]: 10.2 min | stabilization of M^pro (temperature shift) [5]: stabilized; also recorded: concentration-dependent stabilization; also recorded: most pronounced temperature shift | compound remained in mouse plasma [6]: 80% | compound remained in human plasma [7]: 80% | cytotoxicity in HepG2 cells (in words) (HepG2 cells [8]): no obvious cytotoxicity | IC50 (HepG2 cells [8]; Homo sapiens, HepG2, XTT assay, read-out: IC50, HepG2 cell viability): > 100 µM | viability at 24 h, 100 µM ([9]; HepG2 cells): > 80%

Cc1nnc2n1-c1ccc(Cl)cc1C(c1ccccc1)=NC2 [Alprazolam, reference compound]
half-life at 2 μM [1]: 832 min | half-life at 2 μM [4]: 296 min

COc1cc(-c2cccc3[nH]ncc23)cc(C(=O)CO)c1OCC(=O)N(C)C [CDD-1886]
Mpro-His Ki (SARS-CoV-2 M^pro-His6; [10]): Inactive | Mpro Ki (SARS-CoV-2 M^pro): Inactive

COc1cc(-c2cccc3[nH]ncc23)cc(CO)c1OCC(=O)N(C)C [CDD-1776]
Mpro-His Ki (SARS-CoV-2 M^pro-His6; [10]): Inactive | M^pro inhibitory activity (in words) (SARS-CoV-2 M^pro-His6): completely abolished the activity | Mpro Ki (SARS-CoV-2 M^pro): Inactive

CCOC(=O)/C=C/c1cc(-c2cccc3[nH]ncc23)cc(OC)c1OCC(=O)N(C)C [CDD-1971]
Mpro-His Ki (SARS-CoV-2 M^pro-His6; [10]): Inactive | Mpro Ki (SARS-CoV-2 M^pro): Inactive

COc1cc(-c2cccc3[nH]ncc23)cc(C(C)=O)c1OCC(=O)N(C)C [CDD-1883]
Mpro-His Ki (SARS-CoV-2 M^pro-His6; [10]): Inactive | Mpro Ki (SARS-CoV-2 M^pro): Inactive

COc1cc(-c2cccc3[nH]ncc23)cc(C=O)c1OCC(=O)N(C)C [CDD-1713]
Ki (SARS-CoV-2 M^pro-His6; 25 nM enzyme, 15 µM fluorescent peptide, Morrison equation, inactive = less than 90% inhibition at 25 µM, read-out: Ki against M^pro (Fig. 2; Fig. 2B M^pro-His-tag)): 0.045 ± 0.003 µM | Ki (SARS-CoV-2 M^pro-His6; Table S1, 25 nM enzyme, 15 µM fluorescent peptide, Morrison equation, SE from triplicates, read-out: Mpro-His Ki): 0.045 ± 0.003 µM | Ki (SARS-CoV-2 M^pro-His6; read-out: Ki against M^pro (Fig. 2; Fig. 2B M^pro-His-tag)): 0.045 µM | metabolic stability in human liver microsomes (in words) [1]: metabolically labile | half-life at 2 μM [1]: 15.3 min | cell permeability in uptake assay of HepG2 cells (HepG2 cells [2]): moderate cell permeability | effect on SARS-CoV-2 induced cell death (in words) [3]: reduced cell death in a dose-dependent manner | IC50, SARS-CoV-2 induced cell death (normalized cell index, RTCA) [3]: 5.19 µM | metabolic stability in mouse liver microsomes (in words) [4]: metabolically labile | half-life at 2 μM [4]: 8.4 min | stabilization of M^pro (temperature shift) [5]: stabilized; also recorded: concentration-dependent stabilization | compound remained in mouse plasma [6]: 80% | compound remained in human plasma [7]: 80% | cytotoxicity in HepG2 cells (in words) (HepG2 cells [8]): no obvious cytotoxicity | viability at 24 h, 100 µM [9]: > 80% | Ki (renin): 53 µM

COc1cc(-c2cccc3[nH]ncc23)cc(C=O)c1OCC(=O)N1CCC(Oc2cccc(C(=O)N(C)C)c2)C1 (stereo not shown) [CDD-1714]
Ki (SARS-CoV-2 M^pro-His6): 0.02 µM | Ki (SARS-CoV-2 M^pro-His6; [11]): 0.02 ± 0.003 µM | Ki (SARS-CoV-2 M^pro-His6; [12]): 0.02 ± 0.003 µM | Ki (SARS-CoV-2 M^pro; read-out: Mpro Ki): 0.024 ± 0.003 µM | stabilization of M^pro (temperature shift) [5]: stabilized; also recorded: concentration-dependent stabilization

COc1cc(-c2cccc3c2cnn3C)cc(C=O)c1OCC(=O)N(C)C [CDD-1847]
Mpro-His Ki (SARS-CoV-2 M^pro-His6; [10]): Inactive | M^pro inhibitory activity (in words) (SARS-CoV-2 M^pro-His6): completely lost activity | effect on SARS-CoV-2 induced cell death (in words) [3]: unable to prevent cell death | IC50, SARS-CoV-2 induced cell death (normalized cell index, RTCA) [3]: inactive | Mpro Ki (SARS-CoV-2 M^pro): Inactive

CN(C)C(=O)COc1ccc(-c2cccc3[nH]ncc23)cc1C#N [CDD-2038]
Mpro-His Ki (SARS-CoV-2 M^pro-His6; [10]): Inactive | Mpro Ki (SARS-CoV-2 M^pro): Inactive
